# Measured values taken from patent US20080125408A1, “PENEM PRODRUG” (Pfizer Inc, priority 2006, published 2008).
# Read-outs that look alike come from different tables or passages of the source.
# Experiments:
# [1] = Human Intestinal Juice (HIJ) stability studies; assay type: in vitro ADME; conditions: pooled HIJ from 4 subjects, buffered pH 7.4, 37° C., substrate 1-300 μM
# Experimental: In the HIJ experiments, HIJ from 4 individual subjects (1 mL each) was pooled with 1 mL of 600 mM potassium phosphate buffer pH 7.4. Aliquots of 300 μL×6 of the buffered human intestinal juice were incubated at 37° C. following fortification of substrate at concentrations of 300, 100, 30, 10, 3, and 1 μM. Two prodrug compounds could be run at the same time. Samples of 35 μL were taken at 0, 0.5, 1, 2, 10, and 20 minutes and quenched with 70 μL of 80/20 acetonitrile/100 mM ammonium acetate pH 4.5 containing an internal standard (ampicillin, 5 μg/mL). Samples were centrifuged at 3000 g for 10 minutes and the supernatants transferred to injection vials. First order degradation of the prodrug was monitored by LC/MS/MS as described below. The percentage of prodrug remaining versus time at each concentration was fitted to a first order decay function to determine the substrate depletion rate constant or kdep. A linear-log plot of kdep versus concentration could be fitted with the following equation where: [formula] […] In Michaelis-Menton terms, intrinsic clearance CLint represents the ratio of Vmax/Km when [S] is well below the Km. Substrate units for these studies were reported in μM and intrinsic clearance (CIint) in mL/min.
# [2] = Liver S9 stability and conversion efficiency to sulopenem; assay type: in vitro ADME, human; conditions: for half-life at 50 µM: human
# Experimental: Oral bioavailability can be predicted variously by factors including one or more of (1) GI tract stability, (2) Caco-2 permeability, (3) efficiency of conversion to sulopenem, and (4) high solubility. Accordingly, the sulopenem prodrugs of the invention were evaluated, as detailed below, for stability in human intestinal juice (HIJ), efficiency of conversion to sulopenem in human liver homogenate, whole blood conversion and solubility as measured in phosphate buffer pH 5.0. Liver S9 was prepared fresh from liver chunks stored at −70° C. for each analysis completed. Approximately 5 g of frozen liver tissue was homogenized to uniformity in 15 mL of ice cold 100 mM potassium phosphate (pH 7.4) buffer. The homogenate was then centrifuged at 9000 g for 20 minutes at 5° C. to isolate the S9 supernatant fraction. Each incubation was run at a 1:10 dilution of the S9 supernatant in 100 mM potassium phosphate (pH 7.4) buffer. Reactions (1 mL) were initiated by the addition of substrate (50 μM final) at 37° C. Stability and conversion efficiency were assessed in 1 mL incubations with heparinized whole blood at 37° C. For both S9 homogenates and whole blood incubations, aliquots (75 μL) were obtained at 0, 0.5, 1, 2, 3, 5, 10, and 20 minutes and quenched in 150 μL of 80/20 acetonitrile/100 mM ammonium acetate pH 4.5 containing an internal standard (ampicillin, 5 μg/mL). Samples were centrifuged at 3000 g for 10 minutes and the supernatants transferred to injection vials. First order degradation of the prodrug was monitored by LC/MS/MS as described below. Conversion to sulopenem was expressed as a percentage of the molar equivalent (50 μM) in a fortified sample. The results of the S9 and whole blood stability and conversion studies are shown in Table 2, where single values represent an average of two duplicate determinations.
# [3] = Equilibrium solubility in phosphate buffer pH 5
# [4] = Whole blood conversion efficiency to sulopenem; assay type: in vitro ADME; conditions: heparinized whole blood, 37° C.
# Experimental: Stability and conversion efficiency were assessed in 1 mL incubations with heparinized whole blood at 37° C. For both S9 homogenates and whole blood incubations, aliquots (75 μL) were obtained at 0, 0.5, 1, 2, 3, 5, 10, and 20 minutes and quenched in 150 μL of 80/20 acetonitrile/100 mM ammonium acetate pH 4.5 containing an internal standard (ampicillin, 5 μg/mL). Samples were centrifuged at 3000 g for 10 minutes and the supernatants transferred to injection vials. First order degradation of the prodrug was monitored by LC/MS/MS as described below. Conversion to sulopenem was expressed as a percentage of the molar equivalent (50 μM) in a fortified sample. The results of the S9 and whole blood stability and conversion studies are shown in Table 2, where single values represent an average of two duplicate determinations.
# Caco-2 cells = assay: Caco-2 permeability studies (A→B assay)
# [5] = humans, about 500 mg equivalent dose; cited from earlier work
# [6] = system: Staphylococcus saprophyticus; assay: MIC90 of sulopenem (in vitro activity); assay type: cell-based
# Alloiococcus otitidis = assay: MIC90 of sulopenem (in vitro activity); assay type: cell-based; conditions: Alloiococcus otitis
# [7] = system: Streptococcus pyogenes (Group A); assay: MIC90 of sulopenem (in vitro activity); assay type: cell-based
# [8] = system: Streptococcus bovis (Group D); assay: MIC90 of sulopenem (in vitro activity); assay type: cell-based; conditions: Streptococcus equinus
# [9] = system: Viridans Streptococcus group; assay: MIC90 of sulopenem (in vitro activity); assay type: cell-based
# [10] = system: Streptococcus pneumoniae penicillin-susceptible; assay: MIC90 of sulopenem (in vitro activity); assay type: cell-based
# [11] = system: Streptococcus pneumonia penicillin-intermediate; assay: MIC90 of sulopenem (in vitro activity); assay type: cell-based; conditions: Streptococcus pneumoniae
# [12] = system: Streptococcus pneumoniae penicillin-resistant; assay: MIC90 of sulopenem (in vitro activity); assay type: cell-based
# [13] = system: Streptococcus pneumoniae levofloxacin-resistant; assay: MIC90 of sulopenem (in vitro activity); assay type: cell-based
# Klebsiella oxytoca = assay: MIC90 of sulopenem (in vitro activity); assay type: cell-based
# Experimental: (§1) The in vitro activity of sulopenem (B9) (the parent acid) based on minimum inhibitory concentration (MIC) was evaluated against pathogens involved in […] community and hospital infections, as summarized in Table 1.
# Klebsiella pneumoniae = assay: MIC90 of sulopenem (in vitro activity); assay type: cell-based
# Experimental: as §1
# Listeria monocytogenes = assay: MIC90 of sulopenem (in vitro activity); assay type: cell-based
# Experimental: as §1
# Prevotella spp = assay: MIC90 of sulopenem (in vitro activity); assay type: cell-based
# Experimental: as §1
# Salmonella/Shigella = assay: MIC90 of sulopenem (in vitro activity); assay type: cell-based
# Experimental: as §1
# [14] = system: Staphylococcus aureus oxacillin-S; assay: MIC90 of sulopenem (in vitro activity); assay type: cell-based
# Experimental: as §1
# [15] = system: Streptococcus agalactiae (Group B); assay: MIC90 of sulopenem (in vitro activity); assay type: cell-based
# Experimental: as §1
# [16] = system: Corynebacterium spp (not C. jeikeium); assay: MIC90 of sulopenem (in vitro activity); assay type: cell-based
# Citrobacter diversus = assay: MIC90 of sulopenem (in vitro activity); assay type: cell-based; conditions: Citrobacter koseri
# Citrobacter freundii = assay: MIC90 of sulopenem (in vitro activity); assay type: cell-based
# Enterobacter aerogenes = assay: MIC90 of sulopenem (in vitro activity); assay type: cell-based; conditions: Klebsiella aerogenes
# Enterobacter cloacae = assay: MIC90 of sulopenem (in vitro activity); assay type: cell-based
# Escherichia coli = assay: MIC90 of sulopenem (in vitro activity); assay type: cell-based
# [17] = system: Klebsiella pneumoniae ESBL+; assay: MIC90 of sulopenem (in vitro activity); assay type: cell-based
# Morganella morganii = assay: MIC90 of sulopenem (in vitro activity); assay type: cell-based
# Proteus mirabilis = assay: MIC90 of sulopenem (in vitro activity); assay type: cell-based
# [18] = system: Haemophilus influenzae β-lactamase−; assay: MIC90 of sulopenem (in vitro activity); assay type: cell-based
# [19] = system: Haemophilus influenzae β-lactamase+; assay: MIC90 of sulopenem (in vitro activity); assay type: cell-based
# [20] = system: Moraxella catarrhalis β-lactamase−; assay: MIC90 of sulopenem (in vitro activity); assay type: cell-based
# [21] = system: Moraxella catarrhalis β-lactamase+; assay: MIC90 of sulopenem (in vitro activity); assay type: cell-based
# Legionella pneumophila = assay: microbe, parasite or virus in culture; assay type: cell-based
# Neisseria meningitides = assay: MIC90 of sulopenem (in vitro activity); assay type: cell-based
# Bacteroides fragilis = assay: MIC90 of sulopenem (in vitro activity); assay type: cell-based
# Clostridium perfringens = assay: microbe, parasite or virus in culture; assay type: cell-based
# [22] = system: Pseudomonas aeruginosa, Acinetobacter spp., Stenotrophomonas maltophilia, multi-resistant enterococci and methicillin-resistant staphylococci; assay: Antibacterial spectrum: pathogens against which there is no activity; assay type: cell-based
# [23] = in vivo; cited from earlier work
# [24] = human, pooled human intestinal juice (HIJ)
# [25] = prodrug degradation, liver S9 1:10, 50 μM, pH 7.4, 37° C.
# [26] = phosphate buffer, pH 5, aqueous buffer, thermodynamic from solid
structure (smiles),measurement,setting,value
"CCc1oc(=O)oc1COC(=O)C1=C(S[C@H]2CC[S@@+]([O-])C2)S[C@@H]2[C@@H]([C@@H](C)O)C(=O)N12 [Compound 1, (5-ethyl-2-oxo-1,3-dioxol-4-yl)methyl (5R,6S)-6-[(1R)-1-hydroxyethyl]-7-oxo-3-[[(1R,3S)-tetrahydro-1-oxido-3-thienyl]thio]-4-thia-1-azabicyclo[3.2.0]hept-2-ene-2-carboxylate]",Km,[1]; [24],120 µM
same,HIJ CLint,[1],0.14 mL/min
same,half-life at 50 µM,[2]; [25],3.11 min
same,solubility,[3]; [26],1200 µg/mL
"CCCc1oc(=O)oc1COC(=O)C1=C(S[C@H]2CC[S@@+]([O-])C2)S[C@@H]2[C@@H]([C@@H](C)O)C(=O)N12 [Compound 2, (5-propyl-2-oxo-1,3-dioxol-4-yl)methyl (5R,6S)-6-[(1R)-1-hydroxyethyl]-7-oxo-3-[[(1R,3S)-tetrahydro-1-oxido-3-thienyl]thio]-4-thia-1-azabicyclo[3.2.0]hept-2-ene-2-carboxylate]",Km,[1]; [24],22 µM
same,HIJ CLint,[1],0.16 mL/min
same,half-life at 50 µM,[2]; [25],3.62 min
same,solubility,[3]; [26],507 µg/mL
"CCCCc1oc(=O)oc1COC(=O)C1=C(S[C@H]2CC[S@@+]([O-])C2)S[C@@H]2[C@@H]([C@@H](C)O)C(=O)N12 [Compound 3, (5-(3-methylpropyl)-2-oxo-1,3-dioxol-4-yl)methyl (5R,6S)-6-[(1R)-1-hydroxyethyl]-7-oxo-3-[[(1R,3S)-tetrahydro-1-oxido-3-thienyl]thio]-4-thia-1-azabicyclo[3.2.0]hept-2-ene-2-carboxylate]",HIJ CLint,[1],0.16 mL/min
same,Km,[1],41 µM
same,S9 Conv,"[2]; conversion to sulopenem, % of molar equivalent (50 μM), liver S9 1:10, pH 7.4, 37° C.",67%
same,S9 Half-life,[2]; [25],6.09 min
same,Whole Blood Conv,[4],84%
same,Caco-2 Permeability,"Caco-2 cells; Papp A→B, 100 μM prodrug, apical pH 6.5 / basolateral pH 7.4",5.02 ×10⁻⁶ cm/s
same,increase in Caco-2 permeability compared to C1,Caco-2 cells; relative to comparative compound C1,~10 fold
same,solubility,"[3]; equilibrium, 25 mM phosphate buffer (pH 5), ambient temperature, up to 48 hours",809 µg/mL
"Cc1oc(=O)oc1COC(=O)C1=C(S[C@H]2CC[S@@+]([O-])C2)S[C@@H]2[C@@H]([C@@H](C)O)C(=O)N12 [Compound C1, (5-Methyl-2-oxo-1,3-dioxol-4-yl)methyl (5R,6S)-6-[(1R)-1-hydroxyethyl]-7-oxo-3-[[(1R,3S)-tetrahydro-1-oxido-3-thienyl]thio]-4-thia-1-azabicyclo[3.2.0]hept-2-ene-2-carboxylate]",Km,[1]; [24],172 µM
same,HIJ CLint,[1],0.13 mL/min
same,half-life at 50 µM,[2]; [25],2.1 min
same,solubility,[3]; [26],453 µg/mL
CC(O)C1C(=O)N2C(C(=O)OCOC(=O)C(C)(C)C)=C(SC3CC[S+]([O-])C3)SC12 (centres unmarked) [POM ester],oral bioavailability,[5],less than optimal oral bioavailability
"C[C@@H](O)[C@H]1C(=O)N2C(C(=O)O)=C(S[C@H]3CC[S@@+]([O-])C3)S[C@H]12 [Sulopenem, (5R,6S)-6-[(1R)-1-hydroxyethyl]-7-oxo-3-[(1R,3S)-tetrahydro-1-oxido-3-thienylthio]-4-thia-1-azabicyclo[3.2.0]hept-2-ene-2-carboxylic acid]",MIC90,[6],0.5 µg/mL
same,MIC90,Alloiococcus otitidis,1 µg/mL
same,MIC90,[7],0.03 µg/mL
same,MIC90,[8],0.06 µg/mL
same,MIC90,[9],0.25 µg/mL
same,MIC90,[10],0.03 µg/mL
same,MIC90,[11],0.25 µg/mL
same,MIC90,[12],1 µg/mL
same,MIC90,[13],0.5 µg/mL
same,MIC90,Klebsiella oxytoca,0.125 µg/mL
same,MIC90,Klebsiella pneumoniae,0.125 µg/mL
same,MIC90,Listeria monocytogenes,0.125 µg/mL
same,MIC90,Prevotella spp,0.125 µg/mL
same,MIC90,Salmonella/Shigella,0.125 µg/mL
same,MIC90,[14],0.125 µg/mL
same,MIC90,[15],0.125 µg/mL
same,MIC90,[16],2 µg/mL
same,MIC90,Citrobacter diversus,0.06 µg/mL
same,MIC90,Citrobacter freundii,0.25 µg/mL
same,MIC90,Enterobacter aerogenes,0.5 µg/mL
same,MIC90,Enterobacter cloacae,1 µg/mL
same,MIC90,Escherichia coli,0.06 µg/mL
same,MIC90,[17],0.25 µg/mL
same,MIC90,Morganella morganii,2 µg/mL
same,MIC90,Proteus mirabilis,0.5 µg/mL
same,MIC90,[18],0.25 µg/mL
same,MIC90,[19],0.5 µg/mL
same,MIC90,[20],0.03 µg/mL
same,MIC90,[21],0.125 µg/mL
same,MIC90,Legionella pneumophila,0.06 µg/mL
same,MIC90,Neisseria meningitides,0.06 µg/mL
same,MIC90,Bacteroides fragilis,0.5 µg/mL
same,MIC90,Clostridium perfringens,0.06 µg/mL
same,antibacterial activity,[22],not active
same,oral bioavailability,[23],not appreciably orally bioavailable
